# Molecular target: T1, recombinant human mPGES-1 (Homo sapiens, UniProt O14684)
# T1 construct: made in house; host or cells: Rosetta E. coli (microsomal/membrane fraction)
# T1 sequence (O14684 1-152): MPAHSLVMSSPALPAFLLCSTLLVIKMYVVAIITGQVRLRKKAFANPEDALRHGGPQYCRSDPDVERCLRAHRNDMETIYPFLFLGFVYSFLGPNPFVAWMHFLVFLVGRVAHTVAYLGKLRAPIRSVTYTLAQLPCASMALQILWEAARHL
# Assay: mPGES-1 inhibition test (microsomes, PGH2 substrate, HTRF detection of PGE2)
# Assay type: biochemical
# Details: inhibition of mPGES-1 at 10 μM
# Description: Microsomes from Rosetta E. coli bacteria expressing recombinant human mPGES-1 is dissolved in 0.1 M KPi pH 7.4 buffer containing 2.5 mM GSH. 50 μl of the enzyme is subsequently dispensed in a 384-well plate. 0.5 μl of the inhibitor dissolved in DMSO at is thereafter added to each well and incubated for 25 minutes at room temperature. Subsequently, 2 μl of PGH2 dissolved in an appropriate solvent is added to each well and after one minute the acidified stop solution containing FeCl2 is added. 4 μl of the total volume is transferred to a separate plate and diluted 750-fold in two separate steps before HTRF detection of PGE2.
# The HTRf detection is performed by the use of a commercially available kit from CisBio essentially according to the manufacturer's protocol. Briefly, 10 μl of the diluted sample is transferred to a white 384-well plate. 5 μl of d2 and 5 μl Eu3+-Cryptate labeled anti-PGE2 is added to each well containing samples by the use of a Multidrop. The plate is covered with a plastic self-adhesive film, centrifuged at 1200 rpm for 1 minute and subsequently stored at +4° C. over night.
# After over night incubation the fluorescence is measured by the use of an appropriate microplate reader. The fluorescence of europium cryptate, and d2 are measured using the following excitation and emission wavelength, europium cryptate: λmax^ex=307 nm, λmax^em=620 nm and d2: λmax^ex=620 nm, λmax^em=665 nm), respectively. The extent of the specific FRET is measured as a ratio of the emission intensity at 665 nm vs. that at 620 nm. A standard curve using synthetic PGE2 is used to quantify the amount of PGE2 in unknown samples.
row,Compound,inhibition at 10 µM [%]
1,"O=C(Nc1nc2c(s1)CCC2)c1ccc2[nH]c(Nc3c(Cl)cccc3Cl)nc2c1 [Example 78, 2-(2,6-Dichloro-phenylamino)-1H-benzimidazole-5-carboxylic acid (5,6-dihydro-4H-cyclopentathiazol-2-yl)-amide]",90
2,"O=C(Nc1nc2c(s1)CCCC2)c1ccc2[nH]c(Nc3c(Cl)cccc3Cl)nc2c1 [Example 79, 2-(2,6-Dichloro-phenylamino)-1H-benzimidazole-5-carboxylic acid (4,5,6,7-tetrahydro-benzothiazol-2-yl)-amide]",100
3,"O=C(Nc1nc2ccccc2[nH]1)c1ccc2[nH]c(Nc3c(Cl)cccc3Cl)nc2c1 [Example 80, 2-(2,6-Dichloro-phenylamino)-1H-benzimidazole-5-carboxylic acid (benzimidazol-2-yl)-amide]",92
4,"Cn1c(NC(=O)c2ccc3[nH]c(Nc4c(Cl)cccc4Cl)nc3c2)nc2ccccc21 [Example 81, 2-(2,6-Dichloro-phenylamino)-1H-benzimidazole-5-carboxylic acid (1-methyl-benzimidazol-2-yl)-amide]",84
5,"O=C(Nc1ccc(I)cc1)c1ccc2[nH]c(Nc3c(Cl)cccc3Cl)nc2c1 [Example 84, 2-(2,6-Dichloro-phenylamino)-1H-benzimidazole-5-carboxylic acid (4-iodo-phenyl)-amide]",100
6,"Cc1cc(NC(=O)c2ccc3[nH]c(Nc4c(Cl)cccc4Cl)nc3c2)ncc1Cl [Example 89, 2-(2,6-Dichloro-phenylamino)-1H-benzimidazol-5-carboxylic acid (5-chloro-4-methyl-pyridin-2-yl)-amide]",97
7,"O=C(Nc1ccc(Br)cc1)c1ccc2[nH]c(Nc3c(Cl)cc(Cl)cc3Cl)nc2c1 [Example 107, 2-(2,4,6-Trichloro-phenylamino)-1H-benzimidazole-5-carboxylic acid (4-bromo-phenyl)-amide]",99
8,"O=C(Nc1ccc(Br)cc1)c1ccc2[nH]c(Nc3cccc(Cl)c3Cl)nc2c1 [Example 108, 2-(2,3-Dichloro-phenylamino)-1H-benzimidazole-5-carboxylic acid (4-bromo-phenyl)-amide]",100
9,"O=C(Nc1ccc(Br)cc1)c1ccc2[nH]c(Nc3ccc(Cl)cc3Cl)nc2c1 [Example 109, 2-(2,4-Dichloro-phenylamino)-1H-benzimidazole-5-carboxylic acid (4-bromo-phenyl)-amide]",100
10,"O=C(Nc1ccc(Cl)c(Cl)c1)c1ccc2[nH]c(Nc3c(Cl)cccc3Cl)nc2c1 [Example 111, 2-(2,6-Dichloro-phenylamino)-1H-benzimidazole-5-carboxylic acid (3,4-dichloro-phenyl)-amide]",100
11,"O=C(Nc1cc(Cl)cc(Cl)c1)c1ccc2[nH]c(Nc3c(Cl)cccc3Cl)nc2c1 [Example 112, 2-(2,6-Dichloro-phenylamino)-1H-benzimidazole-5-carboxylic acid (3,5-dichloro-phenyl)-amide]",97
12,"CCc1cccc(CC)c1Nc1nc2cc(C(=O)Nc3ccc(Br)cc3)ccc2[nH]1 [Example 114, 2-(2,6-Diethyl-phenylamino)-1H-benzimidazole-5-carboxylic acid (4-bromo-phenyl)-amide]",80
13,"Cc1ccnc(NC(=O)c2ccc3[nH]c(Nc4c(Cl)cccc4Cl)nc3c2)c1 [Example 116, 2-(2,6-Dichloro-phenylamino)-1H-benzimidazole-5-carboxylic acid (4-methyl-pyridin-2-yl)-amide]",92
14,"Cc1cc(C)nc(NC(=O)c2ccc3[nH]c(Nc4c(Cl)cccc4Cl)nc3c2)c1 [Example 117, 2-(2,6-Dichloro-phenylamino)-1H-benzimidazole-5-carboxylic acid (4,6-dimethyl-pyridin-2-yl)-amide]",100
15,"Cc1cc(C)nc(NC(=O)c2ccc3[nH]c(Nc4ccccc4C(F)(F)F)nc3c2)c1 [Example 118, 2-(2-Trifluoromethyl-phenylamino)-1H-benzimidazole-5-carboxylic acid (4,6-dimethyl-pyridin-2-yl)-amide]",80
16,"CCc1ccnc(NC(=O)c2ccc3[nH]c(Nc4c(Cl)cccc4Cl)nc3c2)c1 [Example 120, 2-(2,6-Dichloro-phenylamino)-1H-benzimidazole-5-carboxylic acid (4-ethyl-pyridin-2-yl)-amide]",96
17,"O=C(Nc1ccc(Br)c(F)c1)c1cc2nc(Nc3c(Cl)cccc3Cl)[nH]c2cc1F [Example 121, 2-(2,6-Dichloro-phenylamino)-6-fluoro-1H-benzimidazol-5-carboxylic acid (4-bromo-3-fluoro-phenyl)-amide]",95
18,"Cc1cc2[nH]c(Nc3c(Cl)cccc3Cl)nc2cc1C(=O)Nc1ccc(C(C)(C)C)cc1 [Example 122, 2-(2,6-Dichloro-phenylamino)-6-methyl-1H-benzimidazol-5-carboxylic acid (4-tert.-butyl-phenyl)-amide]",99
19,"Cc1cc2[nH]c(Nc3c(Cl)cccc3Cl)nc2cc1C(=O)NC1CCC(C)(C)CC1 [Example 123, 2-(2,6-Dichloro-phenylamino)-6-methyl-1H-benzimidazol-5-carboxylic acid (4,4-dimethyl-cyclohexyl)-amide]",95
20,"O=C(Nc1ccc(Cl)c(F)c1)c1cc2nc(Nc3c(Cl)cccc3Cl)[nH]c2cc1F [Example 124, 2-(2,6-Dichloro-phenylamino)-6-fluoro-1H-benzimidazol-5-carboxylic acid (4-chloro-3-fluoro-phenyl)-amide]",98
21,"O=C(NC1Cc2ccccc2C1)c1cc2nc(Nc3c(Cl)cccc3Cl)[nH]c2cc1F [Example 125, 2-(2,6-Dichloro-phenylamino)-6-fluoro-1H-benzimidazol-5-carboxylic acid indan-2-yl-amide]",100
22,"Cn1c(Nc2c(Cl)cccc2Cl)nc2cc(C(=O)NCc3cnccc3C(F)(F)F)c(F)cc21 [Example 126, 2-(2,6-Dichloro-phenylamino)-6-fluoro-1-methyl-1H-benzimidazole-5-carboxylic acid (4-trifluoromethyl-pyridin-3-ylmethyl)-amide]",92
23,"Cc1cc(NC(=O)c2cc3nc(Nc4c(Cl)cccc4Cl)n(C)c3cc2F)ncc1Cl [Example 127, 2-(2,6-Dichloro-phenylamino)-6-fluoro-1-methyl-1H-benzimidazole-5-carboxylic acid (5-chloro-4-methyl-pyridin-2-yl)-amide]",100
24,"Cc1cc(C)nc(NC(=O)c2cc3nc(Nc4c(Cl)cccc4Cl)n(C)c3cc2F)c1 [Example 128, 2-(2,6-Dichloro-phenylamino)-6-fluoro-1-methyl-1H-benzimidazole-5-carboxylic acid (4,6-dimethyl-pyridin-2-yl)-amide]",100
25,"Cn1c(Nc2c(Cl)cccc2Cl)nc2cc(C(=O)Nc3cc(Cl)ccn3)c(F)cc21 [Example 129, 2-(2,6-Dichloro-phenylamino)-6-fluoro-1-methyl-1H-benzimidazole-5-carboxylic acid (4-chloro-pyridin-2-yl)-amide]",92
26,"Cn1c(Nc2c(Cl)cccc2Cl)nc2cc(C(=O)Nc3cc(C(F)(F)F)ccn3)c(F)cc21 [Example 130, 2-(2,6-Dichloro-phenylamino)-6-fluoro-1-methyl-1H-benzimidazole-5-carboxylic acid (4-trifluoromethyl-pyridin-2-yl)-amide]",93
27,"Cc1nc(NC(=O)c2cc3nc(Nc4c(Cl)cccc4Cl)n(C)c3cc2F)cc2c1CCCC2 [Example 131, 2-(2,6-Dichloro-phenylamino)-6-fluoro-1-methyl-1H-benzimidazole-5-carboxylic acid (1-methyl-5,6,7,8-tetrahydro-isoquinolin-3-yl)-amide]",96
28,"Cc1nc(NC(=O)c2ccc3[nH]c(Nc4c(Cl)cccc4Cl)nc3c2)cc2c1CCCC2 [Example 132, 2-(2,6-Dichloro-phenylamino)-1H-benzimidazole-5-carboxylic acid (1-methyl-5,6,7,8-tetrahydro-isoquinolin-3-yl)-amide]",97
29,"COc1cc2c(cc1C(=O)NC1CCCCC1)nc(Nc1c(Cl)cccc1Cl)n2C [Example 135, 2-(2,6-Dichloro-phenylamino)-6-methoxy-1-methyl-1H-benzimidazole-5-carboxylic acid cyclohexylamide]",100
30,"COc1cc2c(cc1C(=O)NCc1ccccc1C(F)(F)F)nc(Nc1c(Cl)cccc1Cl)n2C [Example 136, 2-(2,6-Dichloro-phenylamino)-6-methoxy-1-methyl-1H-benzimidazole-5-carboxylic acid 2-trifluoromethyl-benzylamide]",98
